Experimental data reported in ChEMBL document CHEMBL1137926, “S-(2-(acylamino)phenyl) 2,2-dimethylpropanethioates as CETP inhibitors” (Bioorg Med Chem Lett, 2004).

molecular target: T1, Cholesteryl ester transfer protein (Homo sapiens, UniProt P11597); assay: In vitro inhibition of CETP activity was assessed by measuring the rate of [3H]- cholesteryl ester transfer from HDL to apoprotein B-containing lipoproteins in human plasma; type: cell-free
T1 sequence (P11597 whole entry): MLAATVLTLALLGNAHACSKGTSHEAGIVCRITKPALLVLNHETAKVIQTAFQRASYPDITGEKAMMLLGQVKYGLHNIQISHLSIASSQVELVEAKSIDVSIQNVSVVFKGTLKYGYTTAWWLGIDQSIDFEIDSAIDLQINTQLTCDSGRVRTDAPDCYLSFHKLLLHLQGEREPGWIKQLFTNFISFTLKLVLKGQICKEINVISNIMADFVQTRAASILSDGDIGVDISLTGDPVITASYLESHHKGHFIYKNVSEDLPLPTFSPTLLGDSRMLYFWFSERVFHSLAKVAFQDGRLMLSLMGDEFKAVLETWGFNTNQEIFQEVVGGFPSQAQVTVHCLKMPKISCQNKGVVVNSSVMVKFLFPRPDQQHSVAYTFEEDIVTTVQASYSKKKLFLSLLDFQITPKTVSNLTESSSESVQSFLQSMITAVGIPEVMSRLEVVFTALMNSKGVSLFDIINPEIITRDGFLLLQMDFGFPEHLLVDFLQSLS

Structure (SMILES) | IC50 [µM]
Cc1ccc(SC(=O)C(C)(C)C)c(NC(=O)C2(CCC(C)C)CCCCC2)c1 | > 300
CC(C)(C)C(=O)Sc1cc(F)cc(F)c1NC(=O)C1(C)CCCCC1 | > 300
CC(C)CCC1(C(=O)Nc2cc(C(F)(F)F)ccc2SC(=O)C(C)(C)C)CCCCC1 | 13
CC(C)(C)C(=O)Sc1cc(F)ccc1NC(=O)C1(C)CCCCC1 | 78
CC(C)(C)C(=O)Sc1ccc(F)cc1NC(=O)C1(C)CCCCC1 | 70
CC(C)(C)C(=O)Sc1ccc(C#N)cc1NC(=O)C1(C)CCCCC1 | 102
CC(C)CCC1(C(=O)Nc2cc(Cl)ccc2SC(=O)C(C)(C)C)CCCCC1 | 13
COc1ccc(SC(=O)C(C)(C)C)c(NC(=O)C2(CCC(C)C)CCCCC2)c1 | > 300
COc1ccc(SC(=O)C(C)(C)C)c(NC(=O)C2(C)CCCCC2)c1 | > 300
CC(C)(C)C(=O)Sc1c(F)cccc1NC(=O)C1(C)CCCCC1 | > 300
CC(C)CCC1(C(=O)Nc2ccc(Cl)cc2SC(=O)C(C)(C)C)CCCCC1 | 10
